Test results reported in PubChem BioAssay AID318 (DTP/NCI, 2004).
“And” between values parts separate entries of the source, which are not always exact repeats. Identical values can stand only once. Toxic doses and inconclusive results are not listed. Starred links: 1 amine or outer side, 2 acyl side, 3 side chain; linkers in the order of their positions; H or OH if unused. Positions of bridges follow the written chain, without caps; N, C: chain ends. Non-standard residues stand in square brackets, D forms with d. Residues, ends and D or L forms follow the SMILES beside them. Chains are numbered I, II in the order given. Actinocin(1to9) = Cc1c2oc3c(C)ccc(C(=O)[*:2])c3nc-2c(C(=O)[*:1])c(N)c1=O; Actinocin(9to1) = Cc1c2oc3c(C)ccc(C(=O)[*:1])c3nc-2c(C(=O)[*:2])c(N)c1=O; aThr = C[C@H](O)[C@H](N)C(=O)O; NMeV = CN[CH](C(=O)O)C(C)C; Aze = O=C(O)[CH]1CCN1; Sar = CNCC(=O)O

System: BDF1 mice, P815 leukemia ip, survival T/C
Assay: NCI In Vivo Anticancer Drug Screen. Data for tumor model P815 Mast Cell Leukemia (Ascitic) (intraperitoneal) in B6D2F1 (BDF1) mice
Conditions: higher = longer survival
Description: The antitumor activity of compounds was measured in mice bearing transplantable tumors. Survival or tumor size were measured and the results are expressed as the measurement made in the treated group (T) divided by the measurement made in the vehicle treated control group (C). The tumor model used in this assay is P815 Mast Cell Leukemia (Ascitic) (intraperitoneal) in B6D2F1 (BDF1) mice

[1] = endpoint: survival time, mean or median, dose: 5.0 mg/kg/injection, schedule: Q01DX010 (ip), vehicle: saline
[2] = endpoint: survival time, mean or median, dose: 10.0 mg/kg/injection, schedule: Q01DX010 (ip), vehicle: saline
[3] = endpoint: survival time, mean or median, dose: 20.0 mg/kg/injection, schedule: Q01DX010 (ip), vehicle: saline
[4] = endpoint: survival time, mean or median, dose: 40.0 mg/kg/injection, schedule: Q01DX010 (ip), vehicle: saline
[5] = endpoint: survival time, mean or median, dose: 31.3 mg/kg/injection, schedule: Q01DX010 (ip), vehicle: saline
[6] = endpoint: survival time, mean or median, dose: 62.5 mg/kg/injection, schedule: Q01DX010 (ip), vehicle: saline
[7] = endpoint: survival time, mean or median, dose: 125.0 mg/kg/injection, schedule: Q01DX010 (ip), vehicle: saline
[8] = endpoint: survival time, mean or median, dose: 250.0 mg/kg/injection, schedule: Q01DX010 (ip), vehicle: saline

## NOCc1ccsn1
endpoint: median survival time, dose: 15.0 mg/kg/injection, schedule: Q01DX010 (ip), vehicle: saline sonified
  T/C: 100 % of control
endpoint: median survival time, dose: 30.0 mg/kg/injection, schedule: Q01DX010 (ip), vehicle: saline sonified
  T/C: 100 % of control
endpoint: median survival time, dose: 60.0 mg/kg/injection, schedule: Q01DX010 (ip), vehicle: saline sonified
  T/C: 93 % of control

## CN(C)c1ccc(/C=C/c2ccnc3ccccc23)cc1
[1]
  T/C: 100 % of control
[2]
  T/C: 88 % of control and 94 % of control
[3]
  T/C: 88 % of control and 100 % of control
[4]
  T/C: 100 % of control

## NC(=O)N(CCCl)N=O
endpoint: survival time, mean or median, dose: 0.5 mg/kg/injection, schedule: Q01DX010 (ip), vehicle: saline
  T/C: 175 % of control
endpoint: survival time, mean or median, dose: 1.0 mg/kg/injection, schedule: Q01DX010 (ip), vehicle: saline
  T/C: 210 % of control
endpoint: survival time, mean or median, dose: 2.0 mg/kg/injection, schedule: Q01DX010 (ip), vehicle: saline
  T/C: 100 % of control
endpoint: survival time, mean or median, dose: 4.0 mg/kg/injection, schedule: Q01DX010 (ip), vehicle: saline
  T/C: 105 % of control

## Cc1c2oc3c(C)ccc(C(=O)N[C@@H]4C(=O)N[C@H](C(C)C)C(=O)N5CCC[C@H]5C(=O)N(C)CC(=O)N(C)[C@@H](C(C)C)C(=O)O[C@H]4C)c3nc-2c(C(=O)N[C@@H]2C(=O)N[C@H](C(C)C)C(=O)N3CCC[C@H]3C(=O)N(C)CC(=O)N(C)[C@@H](C(C)C)C(=O)O[C@H]2C)c(N)c1=O (I: [aThr][dV]P[Sar][NMeV] / II: [aThr][dV]P[Sar][NMeV]; ester I:1-I:C, II:1-II:C; linker I:N-II:N via Actinocin(9to1))
endpoint: median survival time, dose: 180.0 micrograms/kg/injection, schedule: Q04DX003 (ip), vehicle: saline + alcohol
  T/C: 122 % of control
endpoint: median survival time, dose: 300.0 micrograms/kg/injection, schedule: Q04DX003 (ip), vehicle: saline + alcohol
  T/C: 105 % of control
endpoint: median survival time, dose: 500.0 micrograms/kg/injection, schedule: Q04DX003 (ip), vehicle: saline + alcohol
  T/C: 90 % of control

## CN(C)CC(=O)c1ccc(O)c(O)c1
endpoint: survival time, mean or median, dose: 200.0 mg/kg/injection, schedule: Q01DX010 (ip), vehicle: saline
  T/C: 120 % of control
endpoint: survival time, mean or median, dose: 300.0 mg/kg/injection, schedule: Q01DX010 (ip), vehicle: saline
  T/C: 100 % of control
endpoint: survival time, mean or median, dose: 450.0 mg/kg/injection, schedule: Q01DX010 (ip), vehicle: saline
  T/C: 95 % of control

## CN(C)/N=N/c1nc[nH]c1C(N)=O
endpoint: survival time, mean or median, dose: 25.0 mg/kg/injection, schedule: Q01DX015 (ip), vehicle: carboxymethylcellulose (CMC)
  T/C: 103 % of control
endpoint: survival time, mean or median, dose: 50.0 mg/kg/injection, schedule: Q01DX015 (ip), vehicle: carboxymethylcellulose (CMC)
  T/C: 110 % of control
endpoint: survival time, mean or median, dose: 150.0 mg/kg/injection, schedule: Q01DX015 (ip), vehicle: carboxymethylcellulose (CMC)
  T/C: 96 % of control

## S=P(N1CCOCC1)(N1CC1)N1CC1
endpoint: survival time, mean or median, dose: 2.5 mg/kg/injection, schedule: Q01DX010 (ip), vehicle: saline
  T/C: 97 % of control and 100 % of control
[4]
  T/C: 100 % of control

## C[N+](C)(C)c1ncnc2nc[nH]c12
endpoint: survival time, mean or median, dose: 15.0 mg/kg/injection, schedule: Q01DX010 (ip), vehicle: saline
  T/C: 100 % of control
endpoint: survival time, mean or median, dose: 30.0 mg/kg/injection, schedule: Q01DX010 (ip), vehicle: saline
  T/C: 94 % of control
endpoint: survival time, mean or median, dose: 60.0 mg/kg/injection, schedule: Q01DX010 (ip), vehicle: saline
  T/C: 88 % of control

## CN(C)c1ccc(Nc2c3ccccc3nc3ccccc23)cc1
endpoint: survival time, mean or median, dose: 36.0 mg/kg/injection, schedule: Q01DX010 (ip), vehicle: saline
  T/C: 105 % of control and 122 % of control
endpoint: survival time, mean or median, dose: 54.0 mg/kg/injection, schedule: Q01DX010 (ip), vehicle: saline
  T/C: 120 % of control and 122 % of control
endpoint: survival time, mean or median, dose: 80.0 mg/kg/injection, schedule: Q01DX010 (ip), vehicle: saline
  T/C: 166 % of control
endpoint: survival time, mean or median, dose: 120.0 mg/kg/injection, schedule: Q01DX010 (ip), vehicle: saline
  T/C: 111 % of control

## CCOC(=O)c1[nH]c2ccccc2c1CN(CCCl)CCCl
[2]
  T/C: 105 % of control
[3]
  T/C: 115 % of control
[4]
  T/C: 115 % of control

## CCn1cnc2c(=S)nc[nH]c21
endpoint: survival time, mean or median, dose: 15.6 mg/kg/injection, schedule: Q01DX010 (ip), vehicle: saline
  T/C: 94 % of control
[5]
  T/C: 98 % of control and 102 % of control
[6]
  T/C: 97 % of control

## O=c1[nH]c(=O)n(C2CC(O)C(CO)O2)cc1F (stereo not given)
[1]
  T/C: 100 % of control
[2]
  T/C: 100 % of control and 105 % of control
[3]
  T/C: 111 % of control and 116 % of control
[4]
  T/C: 111 % of control

## C1CN1c1nc(N2CC2)nc(N2CC2)n1
endpoint: survival time, mean or median, dose: 0.13 mg/kg/injection, schedule: Q01DX010 (ip), vehicle: saline
  T/C: 111 % of control
endpoint: survival time, mean or median, dose: 0.25 mg/kg/injection, schedule: Q01DX010 (ip), vehicle: saline
  T/C: 111 % of control
endpoint: survival time, mean or median, dose: 125.0 micrograms/kg/injection, schedule: Q01DX010 (ip), vehicle: saline
  T/C: 100 % of control
endpoint: survival time, mean or median, dose: 250.0 micrograms/kg/injection, schedule: Q01DX010 (ip), vehicle: saline
  T/C: 105 % of control
endpoint: survival time, mean or median, dose: 1000.0 micrograms/kg/injection, schedule: Q01DX010 (ip), vehicle: saline
  T/C: 94 % of control

## Cc1c2oc3c(C)ccc(C(=O)NC4C(=O)NC(C(C)C)C(=O)N5CCCC5C(=O)N(C)CC(=O)N(C)C(C(C)C)C(=O)OC4C)c3nc-2c(C(=O)NC2C(=O)NC(C(C)C)C(=O)N3CCC3C(=O)N(C)CC(=O)N(C)C(C(C)C)C(=O)OC2C)c(N)c1=O (stereo not given) (I: TV[Aze][Sar][NMeV] / II: TVP[Sar][NMeV]; ester I:1-I:C, II:1-II:C; linker I:N-II:N via Actinocin(1to9); configuration not given here)
endpoint: median survival time, dose: 450.0 micrograms/kg/injection, schedule: Q01DX001 (ip), vehicle: saline + alcohol
  T/C: 116 % of control
endpoint: median survival time, dose: 750.0 micrograms/kg/injection, schedule: Q01DX001 (ip), vehicle: saline + alcohol
  T/C: 118 % of control
endpoint: median survival time, dose: 750.0 micrograms/kg/injection, schedule: Q04DX003 (ip), vehicle: saline + alcohol
  T/C: 96 % of control
endpoint: median survival time, dose: 1250.0 micrograms/kg/injection, schedule: Q04DX003 (ip), vehicle: saline + alcohol
  T/C: 93 % of control
endpoint: median survival time, dose: 2080.0 micrograms/kg/injection, schedule: Q01DX001 (ip), vehicle: saline + alcohol
  T/C: 86 % of control

## c1ccc(CNc2ncnc3[nH]ncc23)cc1
endpoint: survival time, mean or median, dose: 8.0 mg/kg/injection, schedule: Q01DX010 (ip), vehicle: saline
  T/C: 100 % of control and 109 % of control
endpoint: survival time, mean or median, dose: 16.0 mg/kg/injection, schedule: Q01DX010 (ip), vehicle: saline
  T/C: 100 % of control
endpoint: survival time, mean or median, dose: 32.0 mg/kg/injection, schedule: Q01DX010 (ip), vehicle: saline
  T/C: 109 % of control
endpoint: survival time, mean or median, dose: 64.0 mg/kg/injection, schedule: Q01DX010 (ip), vehicle: saline
  T/C: 95 % of control and 109 % of control

## CN=C(NC)c1ccc(NC(=O)Nc2ccc(NC(=O)Nc3ccc(C(=NC)NC)cc3)cc2)cc1
endpoint: survival time, mean or median, dose: 13.3 mg/kg/injection, schedule: Q01DX010 (ip), vehicle: saline
  T/C: 108 % of control
[3]
  T/C: 112 % of control

## CC/C(=C(/CC)c1ccc(O)cc1)c1ccc(O)cc1
endpoint: survival time, mean or median, dose: 12.5 mg/kg/injection, schedule: Q01DX010 (sc), vehicle: steriod suspending solution
  T/C: 100 % of control and 104 % of control
endpoint: survival time, mean or median, dose: 25.0 mg/kg/injection, schedule: Q01DX010 (sc), vehicle: steriod suspending solution
  T/C: 100 % of control and 109 % of control
endpoint: survival time, mean or median, dose: 50.0 mg/kg/injection, schedule: Q01DX010 (sc), vehicle: steriod suspending solution
  T/C: 100 % of control and 104 % of control
endpoint: survival time, mean or median, dose: 100.0 mg/kg/injection, schedule: Q01DX010 (sc), vehicle: steriod suspending solution
  T/C: 100 % of control and 109 % of control

## O=C1CCC(N2C(=O)c3ccccc3C2=O)C(=O)N1 (stereo not given)
[5]
  T/C: 104 % of control
[6]
  T/C: 100 % of control
[7]
  T/C: 96 % of control
[8]
  T/C: 96 % of control

## NC(=O)c1[nH]nc(C2OC(CO)C(O)C2O)c1O (stereo not given)
endpoint: median survival time, dose: 1.56 mg/kg/injection, schedule: Q04DX003 (ip), vehicle: saline
  T/C: 102 % of control
endpoint: median survival time, dose: 2.59 mg/kg/injection, schedule: Q04DX003 (ip), vehicle: saline
  T/C: 104 % of control
endpoint: median survival time, dose: 4.32 mg/kg/injection, schedule: Q04DX003 (ip), vehicle: saline
  T/C: 103 % of control
endpoint: median survival time, dose: 7.2 mg/kg/injection, schedule: Q04DX003 (ip), vehicle: saline
  T/C: 121 % of control
endpoint: median survival time, dose: 12.0 mg/kg/injection, schedule: Q04DX003 (ip), vehicle: saline
  T/C: 114 % of control
endpoint: median survival time, dose: 20.0 mg/kg/injection, schedule: Q04DX003 (ip), vehicle: saline
  T/C: 104 % of control

## O=C1C(NC(=O)C2CCCCC2)=C(N2CC2)C(=O)C(NC(=O)C2CCCCC2)=C1N1CC1
endpoint: survival time, mean or median, dose: 50.0 mg/kg/injection, schedule: Q01DX010 (ip), vehicle: saline
  T/C: 88 % of control
endpoint: survival time, mean or median, dose: 100.0 mg/kg/injection, schedule: Q01DX010 (ip), vehicle: saline
  T/C: 94 % of control

## O=c1cn[nH]c(=O)[nH]1
[6]
  T/C: 91 % of control and 95 % of control
[7]
  T/C: 91 % of control and 100 % of control
[8]
  T/C: 95 % of control
endpoint: survival time, mean or median, dose: 500.0 mg/kg/injection, schedule: Q01DX010 (ip), vehicle: saline
  T/C: 100 % of control and 104 % of control
